This note sets out measurements from US10835564B2, “Composition for preventing and treating premature ovarian failure, containing Evodia rutaecarpa bentham extract having protective activity against ovotoxicity” (DONGGUK UNIVERSITY GYEONGJU CAMPUS INDUSTRY-ACADEMY …, priority 2015, dated 2020).

For this test, the system named is CHO-K1 cells. As to the kind of experiment: MTT assay, cytotoxicity against CHO-K1 cells. The test is classed as cell-based, hamster. The settings on record: 24 hours, FIG. 4, read-out: concentration at which the viability of CHO-K1 cells became about 50%. The procedure: The cell viability was analyzed by a 3-(4,5-dimethylthiazol)-2,5-diphenyltetrazolium bromide (MTT) assay method. After CHO-K1 cells at 2×10^4 cells/well were cultured in a 48-well plate and then serum starved for 4 hours, VCD was treated at various concentrations or the respective medicines were pre-treated at 100 μg/ml, VCD (1.5 mM) was sequentially treated, and the cells were cultured under the conditions of 37° C. and 5% CO2 for 24 hours. After 30 μl of an MTT solution (2 mg/ml) per well was added thereto and the resulting mixture was allowed to react in an incubator at 37° C. and 5% CO2 for 3 hours, the MTT solution and the culture solution were completely removed, and then formazan crystallites formed in the cells were dissolved by using 150 μl of dimethyl sulfoxide (DMSO, Sigma-Aldrich, USA), and the absorbance thereof was measured at 595 nm by using an ELISA plate reader (DYNEX, Opsys MR, USA). The cell viability for the control was expressed as a percentage.
The cytotoxicity of VCD against CHO-K1 cells was evaluated by the MTT assay according to Example 1-4, and as a result, the concentration (1.5 mM) at which the viability of CHO-K1 cells by VCD became about 50% was determined (see FIG. 4), and the result was applied to the following experiment. […]

Consider `C1CC2OC2CC1C1CO1` (stereo not shown) [VCD, 4-vinylcyclohexene diepoxide], for which the IC50 worked out at 1500 µM.
